# Laboratory results from a melting point compilation (Tetko et al.; mined from patent text by program, amines drawn as free bases though some values may be those of a salt).
row,melting point,SMILES
1,99 to 101 °C,ClCCCCCOc1ccc(C2=C(c3ccccc3)CCCc3cc(OC4CCCCO4)ccc32)cc1 (stereo not given)
2,177 to 179 °C,CC(=O)NCC1CN(c2cc(F)c(N3CCN(C(=O)OC(C)(C)C)CC3)c(F)c2)C(=O)O1 (stereo not given)
3,144 °C,O=C1C(=O)N(CCCCN2CCN(C(c3ccccc3)c3ccccc3)CC2)c2ccc(F)cc21
4,172 to 174 °C,Cc1ccc(NCC2CCN(C(C)C)CC2)c(C(=O)Nc2ccc(Cl)cn2)c1
5,49 to 51 °C,COc1nc(N2CCN(C(=O)c3ccccc3C(F)(F)F)CC2)ccc1C(=O)NCCC1CC1
6,148 to 150 °C,CN1CCCC1=NC(=O)Nc1cc(Cl)ccc1Cl
7,113 to 115 °C,CC(C)OC(=O)c1cc(-n2c(=O)c3c(n(C)c2=O)CCCC3)c(F)cc1Cl
8,85 to 88 °C,O=C1COCC(c2ccc(F)c(F)c2)N1C(=O)NCCCN1CCC(O)(c2ccccc2)CC1 (stereo not given)
9,112 to 113 °C,c1ccc(CCN2CCN(c3nc4cccc5c4n3CCC5)CC2)cc1
10,179 °C,CS(=O)(=O)c1cc(C(=O)O)c(NCc2ccccc2)cc1Cl
11,233 to 236 °C,NC(=O)c1ccc(-c2cnc3[nH]c(=O)n(CCC4CCOCC4)c3n2)cc1
12,201 to 203 °C,CCN(C)C(=O)c1cnn(C)c1C(=O)Nc1ccn2nc(N3CCOCC3)nc2c1
13,66 to 68 °C,CCC(Oc1cccc(C(F)(F)F)c1)C(=O)NCc1ccccc1Cl (stereo not given)
14,104 °C,Cc1coc(-c2ccccc2)c(-c2ccc(Cl)c(Cl)c2)c1=O
15,243 to 245 °C,Cn1cc(C(=O)O)c(=O)c2cc(F)c(N3CCCN(c4ncccn4)CC3)c(C(F)(F)F)c21
16,72 to 74 °C,CCOC(=O)C(C)(C#N)Cc1cc([N+](=O)[O-])ccc1Cl (stereo not given)

row,melting point,SMILES
1,153 to 154 °C,CCCc1nn(C)c(C(N)=O)c1NC(=O)c1ccccc1OCC
2,113 °C,COC(=O)C1=C(C(=O)OC)c2c(c3ccccc3n2C)CC1
3,121 to 122 °C,COc1cc(CO)ccc1OCc1nc(N2CCOCC2)sc1C
4,222 to 224 °C,COC(=O)c1cc(C(=O)O)cc(-c2cc(Cl)ccc2Cl)c1
5,153 to 157 °C,O=[N+]([O-])c1cc(Cl)c(CCN2CCN(c3nsc4ccccc34)CC2)cc1Cl
6,242 to 244 °C,Cn1cc(C(=O)NCc2ccc(Cl)cc2)c(=O)c2cc(CO)cc(I)c21
7,172 to 174 °C,CC(C)CC(C(=O)c1cccc(Cl)c1)c1ccccc1NC(C)(C)C (stereo not given)
8,> 330 °C,Nc1ccc(C2=NNC(=O)CC2)cc1[N+](=O)[O-]
9,194 to 195 °C,O=C1Nc2ccccc2N(C(=O)CN2CCCCC2CN2CCOCC2)c2ccccc21 (stereo not given)
10,222 °C,NC(CC(=O)O)c1ccccc1[N+](=O)[O-] (stereo not given)
11,140 to 144 °C,COCCN1CCN(C(=O)c2ccc3n2Cc2ccccc2N(C(=O)c2ccc(-c4ccccc4C(F)(F)F)c(C)c2)C3)CC1
12,145 °C,COc1ccc(Br)c(C(=O)N2CCN(S(=O)(=O)c3cccc(F)c3)CC2)c1
13,149 to 150 °C,COc1cc(Nc2ncc(N)c(-c3ccccc3)n2)cc(OC)c1OC
14,77 to 78 °C,Clc1ncccc1OCCOc1ccccc1
15,183 to 185 °C,CCCCc1nc(Cl)c(C(=O)O)n1Cc1ccc2oc(-c3ccccc3-c3nnn[nH]3)c(Br)c2c1
16,161 to 165 °C,O=C(Nc1ccc(C2=CCN(C(=O)Nc3ccc(OCC(O)CO)cc3Cl)CC2)cc1)Nc1ccccc1F (stereo not given)

# Second part, the compound before the results:
row,SMILES,melting point
1,CC(Cl)(Cl)C(NC(=O)c1ccc(C(F)(F)F)cc1)NC(=NS(=O)(=O)C(F)(F)F)Nc1cccnc1 (stereo not given),214 to 215 °C
2,Cc1ccc(NC(=O)c2ccc3ncccc3c2)cc1NC(=O)c1ccc(OCc2ccccc2)cc1,227 to 228 °C
3,Cc1ncc([N+](=O)[O-])cc1C(=O)NCCO,144 to 145 °C
4,COc1cc(OC)cc(Oc2nc(N)n3nc(-c4ccco4)nc3n2)c1,248 to 250 °C
5,CCCc1cc(Cl)c2oc(C(=O)OCC)c(C)c2c1O,165 to 166 °C
6,COc1cc(O)c(C(=O)C=Cc2ccc(OCc3ccccc3)c(OC)c2)c(OC)c1,131 °C
7,CCCN(CCC)Cc1nc(-c2ncn3c2[C@@H]2CCN2C(=O)c2c(Cl)cccc2-3)no1,147 to 153 °C
8,NC(=O)Cn1c(-c2ccccn2)nc2cccnc21,275 to 278 °C
9,CC(C)(C)c1ccc(OC(CC(=O)O)C(=O)O)c(C(C)(C)C)c1 (stereo not given),177 to 181 °C
10,CC(=O)Nc1ccc(Oc2ccc(S(C)=O)cc2)cc1 (stereo not given),159 to 161 °C
11,O=S(=O)(c1cc(Cl)[nH]c1-c1ccc(Cl)cc1)C(F)(F)F,109 to 112 °C
12,CCCCCS(=O)(=O)NCCCc1ccc(OCCOC)cc1Oc1ncc(C(F)(F)F)cc1Cl,87 to 90 °C
13,CCCCCCCC/C=C\CCCCCCCC(=O)NCCNC(=O)CCNC(=O)C1OC(C)(C)OCC1(C)C (stereo not given),110 to 112 °C
14,C#CC1(OC(C)=O)CCC2C3CCC4=CC(=O)C=CC4(C)C3CCC21C (stereo not given),172 to 173 °C
15,CC(C)CNC(=O)C(C)NC(=O)C(C)NC(=O)C(C)NC(=O)OCc1ccccc1 (stereo not given),260 to 262 °C
16,Oc1ccc2cc(Br)ccc2c1Cl,100 to 101 °C
17,C=CC(=O)OCCCCCCOc1ccc(C(=O)O)cc1,139 °C
18,N#CC1CN1C(=O)NC(=O)c1cc2ccccc2o1 (stereo not given),190 to 192 °C
19,CCc1nc2c(-c3cc4cc(Br)oc4cc3C)ncnc2n1C(C1CC1)C1CC1,177 to 178 °C
20,CN(N=[N+](C)[O-])c1ccccc1,55 to 56 °C
21,CCN1C(=O)C(C)(C)C(=O)N(C)c2cc(CN(CCn3ccc4oc(C)cc4c3=O)C(C)c3cccnc3)ccc21 (stereo not given),128 to 132 °C
22,CCN(CC)CCOc1ccc(Nc2nccc(-c3ccncc3)n2)cc1,85 to 87 °C
23,COc1cc(C)c2c(c1OC)CCCC2=O,58 to 62 °C

row,SMILES,melting point
1,C=CC(=O)N1CC(O)CC1C(=O)OC (stereo not given),77 to 78 °C
2,C=Cn1cc(C(=O)O)c(=O)c2cc(F)c(O)nc21,256 to 259 °C
3,Cc1ncnn1-c1ccc(N)cc1,145 °C
4,CC(C)NC1=NS(=O)(=O)c2cc(Cl)cc(Cl)c2N1,> 230 °C
5,CN(C)Cc1ccc(CSCCNC(=NC(=O)CNN2C(=O)c3ccccc3C2=O)N(C)N=Cc2ccccc2)o1,115 °C
6,CC(C)(C)OC(=O)C1CC1c1ccc(-c2ncn(-c3ccc(OC(F)(F)F)cc3)n2)cc1 (stereo not given),100 to 101 °C
7,COc1cc(Cc2cnc(N)nc2N)c2c(c1OC)OC(C)CC2=O (stereo not given),128 to 132 °C
8,O=C(OCc1ccccc1)C(O)P(=O)(OCc1ccccc1)OCc1ccccc1 (stereo not given),67 to 68 °C
9,S=c1cc(-c2ccc(Cl)cc2)ss1,135 °C
10,CCOC(=O)c1c(C(F)(F)F)oc(C(F)(F)F)c(C(=O)OCC)c1=O,90 to 91 °C
11,CCOC(=O)CN1C(=O)[C@@H](NC(=O)OC(C)(C)C)CCc2ccccc21,99 to 101 °C
12,O=C1NC(=S)SC1=Cc1ccc2c(c1)N(Cc1cccc(-c3ccncc3)c1)C(=O)CO2,297 to 299 °C
13,CC(C)(C=C(Br)Br)C(=O)Nc1ccc(Cl)cc1,104 °C
14,CCOc1ccc(C(=O)CBr)cc1C(=O)OC,147 to 148 °C
15,CCCCC(=O)N(Cc1ccc(OC(F)(F)F)cc1)c1cc(Cl)cc(-c2nnn[nH]2)c1,177 to 180 °C
16,COC(=O)c1ccc(C(=O)c2c(O)cccc2F)cc1,101 °C
17,COc1cc(S(C)(=O)=O)c(C)cc1OCC(=O)NCC(O)COc1ccccc1 (stereo not given),103 to 105 °C
18,CC=CC(=O)Nc1ccc2c(Nc3cccc(Br)c3)ncnc2c1,> 250 °C
19,CCOC(=O)C1=CCCCC1S(=O)(=O)Nn1cccc1CC (stereo not given),77 to 78 °C
20,CN(C)CCNc1ccc(O)c2c1C(=O)c1c(O)ccc(O)c1C2=O,171 to 172 °C
21,O=C(NCCCCCCCNC(=O)c1ccc(OC2CCCC2)cc1)c1ccc(OC2CCCC2)cc1,153 to 154 °C
22,O=C1CCCC(c2ccc(F)cc2)CN1 (stereo not given),158 to 160 °C
23,CC1=NC=CC(C)(c2c(F)cc3c(=O)c(C(=O)O)cn4c3c2OCC4C)C1 (stereo not given),308 to 312 °C

row,SMILES,melting point
1,NS(=O)(=O)C=C(c1ccccc1)c1ccccc1,134 to 135 °C
2,CCOc1c(C(=O)NC2CN3CCC2CC3)cc(Cl)c2c1CCCN2 (stereo not given),160 °C
3,CSCCOC(=O)N(C)c1nnc(-c2cncc(F)c2)s1,104 to 106 °C
4,O=C(NCCCCCCCNC(=O)c1ccc(Oc2ccccc2)cc1)c1ccc(Oc2ccccc2)cc1,164 to 165 °C
5,C=Cc1cccc2ccc(O)nc12,96 °C
6,COC(=O)C1CCN2C(=O)C(=O)c3cccc1c32 (stereo not given),135 to 136 °C
7,Cn1nc(-c2ncc(Cl)cc2F)cc1OCC(F)(F)F,72 to 73 °C
8,OCc1ccc(-c2ccccc2)cn1,86 to 87 °C
9,CN(C)C1(c2ccccc2)CCC2(OCCc3c2[nH]c2ccccc32)C(CCO)C1 (stereo not given),311 to 314 °C
10,Cc1cc2[nH]c(=O)c3cnc(Cl)cc3n2n1,> 300 °C
11,CCCCN1CCN(CCNC(=O)c2nn(C(C)C)c3ccccc23)CC1,82 to 84 °C
12,O=C(O)c1ccc(-c2nc(-c3cc(C(F)(F)F)cc(C(F)(F)F)c3)co2)cc1,277 to 279 °C
13,COc1cc(NC(=O)Nc2ccccc2)cc(Cl)n1,161 to 162 °C
14,Nc1ccc(NCCO)c(C(F)(F)F)c1,74 to 75 °C
15,CC(=O)C(=NNc1ccccc1)Sc1ccc(Cl)cc1,111 to 113 °C
16,CCOC(=O)c1nnc2ccc(NC(=O)NC(Cc3ccccc3)C(=O)OC)cc2c1O (stereo not given),242 to 243 °C
17,Cc1ccc(C(=O)C2=C(O)C(=O)N(c3ncc(S(=O)(=O)N(C)C)s3)C2c2ccc(C(C)C)cc2)cc1 (stereo not given),237 to 241 °C
18,CCCn1nc(Cc2ccc(-c3ccccc3-c3nnn(C(c4ccccc4)(c4ccccc4)c4ccccc4)n3)cc2)c(C(=O)OCC)c1C(C)C,158 to 159 °C
19,COc1ccc(CSc2cccc(C(=O)Nc3ccc(C#N)cn3)c2)cc1,163 to 164 °C
20,Nc1ccc(-c2ncnn2-c2ccc(F)cc2)cc1,128 to 130 °C
21,CCCCCCCCCC1OC1CO (stereo not given),55 to 56 °C
22,CCCc1nc(C(C)(C)O)c(C(=O)OCOC(=O)OC(C)C)[nH]1,144 to 146 °C
